Reference: PMC9762789, “Chromone-based monoamine oxidase B inhibitor with potential iron-chelating activity for the treatment of Alzheimer’s disease” (Journal of Enzyme Inhibition and Medicinal Chemistry, 2022)
“Also recorded” adds a separate entry of the source. Like-named read-outs stand apart in the source and are kept apart here.

Experiments:
PAMPA-BBB assay = format: in vitro ADME
From the text: Good blood–brain barrier (BBB) permeability is the key to exerting drug efficacy in the treatment of central nervous system diseases. To evaluate whether the target compound could penetrate BBB, a parallel artificial membrane permeability assay (PAMPA) was used to predict[32]^,[33]. […] Therefore, due to its potential ability to cross the BBB, compound 17d was selected for subsequent assay.
PAMPA was used to predict the BBB permeability of the screened compound. The detailed process has been mentioned in our early work[32]^,[33].

MAO-B [1] = molecular target: T1, MAO-B (Homo sapiens, UniProt P27338); assay: MAO-B kinetic study (Michaelis-Menten, Lineweaver-Burk, p-tyramine substrate); format: biochemical
T1 construct: purchased Sigma-Aldrich
T1 sequence (P27338 1-520): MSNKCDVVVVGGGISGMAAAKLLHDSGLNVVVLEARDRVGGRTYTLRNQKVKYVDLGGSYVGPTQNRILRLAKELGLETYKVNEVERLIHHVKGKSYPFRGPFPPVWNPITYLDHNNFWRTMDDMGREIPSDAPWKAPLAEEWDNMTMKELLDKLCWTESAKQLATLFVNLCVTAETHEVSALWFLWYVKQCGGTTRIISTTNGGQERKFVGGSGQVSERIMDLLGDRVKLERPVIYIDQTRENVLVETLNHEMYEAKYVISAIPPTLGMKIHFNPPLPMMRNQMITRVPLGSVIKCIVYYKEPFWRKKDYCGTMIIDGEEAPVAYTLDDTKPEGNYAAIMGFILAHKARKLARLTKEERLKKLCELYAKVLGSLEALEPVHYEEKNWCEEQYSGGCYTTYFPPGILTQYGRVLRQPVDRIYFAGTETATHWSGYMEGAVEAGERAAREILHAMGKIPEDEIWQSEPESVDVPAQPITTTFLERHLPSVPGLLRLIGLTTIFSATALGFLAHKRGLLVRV
Procedure: Figure 5. Kinetic study and cytotoxicity assay of compound 17d. […] The Cytotoxicity effect of compound 17d on PC-12 cells (C).
(§1) To examine the interaction mode of 17d on MAO-B, kinetic studies were carried out. From the Lineweaver–Burk plots (Figure 5(B)), we observed that 17d operated by a non-competitive inhibition mechanism. […] Subsequently, the potential toxic effect of 17d was investigated on pheochromocytoma (PC-12) cells.
To further examine the interaction mode of compound 17d, the type of enzyme inhibition was determined by Michealis–Menten kinetic experiments. The catalytic rates of MAO‐B enzyme were measured at six different concentrations of substrate p‐tyramine (0.05, 0.1, 0.25, 0.5, 1.0, and 1.25 mM) in the absence and in the three different concentrations (33.3, 100, and 300 nM) of compound 17d. The corresponding dose‐response curves and the nonlinear/linear regression analysis were performed using GraphPad Prism version 6 software (Graphpad Software Inc., La Jolla, CA).

PC-12 cells = assay: Cytotoxicity test (MTT); format: cell-based; settings: 24 h, up to 50 µM
Procedure: as §1
Neural pheochromocytoma-derived PC-12 cells at the log phase of their growth cycle (8 × 10^4 cells/ml) were added to each well (100 μl/well) and incubated for 24 h at 37 °C in a humidified atmosphere of 5% CO2. Then three replicates at various concentrations of the samples (3.13, 6.25, 12.5, 25, and 50 μM) were added to each well (100 μl/well). After incubating for 24 h, 20 μl of MTT solution (5 mg/ml/well) was added to each culture medium, which was then incubated for another 4 h. Then DMSO was added to each well (150 μl/well). After 10 min at room temperature, the OD values of each well were measured on a Microplate Reader (BioTek ELx800, Winooski, VT) at the wavelength of 490 nm.

[2] = Pharmacokinetic study and brain distribution (UHPLC-MS/MS); format: in vivo; settings: rats; for AUC(0-t): read-out: AUC0–24; for MRT inf: read-out: MRT0–∞
Procedure: UHPLC-MS/MS method was adopted to investigate the pharmacokinetic profiles of its metabolites after intravenous (i.v.) administration (2.34 mg/kg) and intragastric (i.g.) administration (15 mg/kg) of 17d in the tail vein of rats.
Rats were purchased from the Zhejiang Academy of Medical Sciences (Hangzhou, China). All rats were kept strictly following the requirements of experimental animal operation instructions, kept at a temperature (22 ± 2 °C), day/night cycle every 12 h in a constant environment. 12 h before the experiment, the rats were fasted but free to drink. For each rat, retro-orbital blood samples (0.2 ml) were obtained into EDTA soaked polythene tubes before drug administration and at time points of 0.083, 0.25, 0.50, 0.75, 1.0, 2.0, 4.0, 6.0, 8.0, 10, 12, and 24 h post-dosing. The collected blood samples were immediately centrifuged at 3500 rpm for 10 min at room temperature to separate plasma, and stored in a −80 °C refrigerator before use. […] The tissue was weighed and homogenised under ice bath conditions and was collected for further processing.
Biological samples were performed with ACQUITY UPLC® H Class system, which was coupled to an Xevo TQ-S micro triple quadrupole mass spectrometer (Waters, Milford, MA, USA) with an ESI source and MassLynx^TM Workstation software version 4.2 (Waters, Milford, MA, USA). We used a BEH Shield RP C18 column (100 × 2.1 mm, 1.7 µm, Waters, Milford, MA, USA) for chromatographic separation, and the column temperature is kept at 30 °C. The mobile phase was composed of 30%, 0.2% formic acid aqueous solution (A) and 70%, 0.3% formic acid methanol solution (B) and is delivered at a flow rate of 0.2 ml/min. The temperature of the autosampler is set to 30 °C. The sample injection volume is 5 µl. Pharmacokinetic parameters of the analytes were calculated using the pharmacokinetic software DAS version 2.0 (Bontz Inc., Beijing, China). All data were expressed as mean ± SD.

MAO-B [3] = molecular target: T1, MAO-B; assay: hMAO-B inhibition assay; format: biochemical
Procedure: The reagents and enzymes (Human MAO-B and Human MAO-A) applied in this experiment were purchased from Sigma-Aldrich. According to the manuals, all components (substrate solution and enzyme solution) are diluted and placed aside for use. The detailed process has been mentioned in our early work[34].

[4] = rat, plasma, iv, i.v. 2.34 mg/kg, mean ± SD, n = 3
[5] = rat, plasma, po, i.g. 15 mg/kg, mean ± SD, n = 3

COc1ccc2c(=O)c(CNCCn3ccc(=O)c(O)c3C)coc2c1 [Compound 17d, 3-Hydroxy-1–(2-(((7-methoxy-4-oxo-4H-chromen-3-yl)methyl)amino)ethyl)-2-methylpyridin-4(1H)-one]
Papp (PAMPA-BBB assay; PAMPA-BBB, mean ± SEM of eight independent experiments, read-out: Pe ± SEM): 2.73 ± 0.07 ×10⁻⁶ cm/s
CNS (PAMPA-BBB assay; class from PAMPA-BBB Pe): ± (CNS (±) (BBB permeation uncertain); Pe (× 10^−6 cm s^−1) from 2.0 to 4.0)
inhibition mechanism (MAO-B [1]; Lineweaver–Burk plots): non-competitive
Ki (MAO-B [1]; p-tyramine substrate, GraphPad Prism, read-out: inhibition constant (Ki)): 74.7 nM
cytotoxicity (PC-12 cells): no cytotoxicity; also recorded: noncytotoxic
AUC(0-inf) [2, 4]: 749 ± 87.1 ng·h/mL
Cmax [2, 4]: 2150 ± 637 ng/mL
Tmax [2, 4]: 4.98 min
clearance [2, 4]: 52.5 mL/min/kg
half-life [2, 4]: 19.2 min
AUC(0-t) [2, 4]: 745 ± 88.4 ng·h/mL
MRT inf [2, 4]: 15 ± 4.8 min
bioavailability ([2]; rat, plasma, oral, i.g. 15 mg/kg vs i.v. 2.34 mg/kg, read-out: F (bioavailability)): 9.25%
AUC(0-inf) [2, 5]: 444 ± 65.3 ng·h/mL
Cmax [2, 5]: 390 ± 50.1 ng/mL
Tmax [2, 5]: 15 min
half-life [2, 5]: 30.6 ± 10.8 min
AUC(0-t) [2, 5]: 439 ± 59.6 ng·h/mL
MRT inf [2, 5]: 48.6 ± 5.4 min
Brain 17d content ([2]; i.g. 15 mg/kg, collected at Cmax time point): 6.02 ± 0.08 ng/g
V ([2]; i.v. 2.34 mg/kg, mean ± SD, n = 3): 1.46 ± 0.19 L/kg
IC50 (MAO-B [3]): 67 ± 4.3 nM
SI: hMAO-B selectivity index = IC50 (hMAO-A)/IC50 (hMAO-B) (MAO-B [3]): 11.0
inhibition at 0.1 µM (MAO-B [3]; hMAO-B, 100 nM, read-out: Inhibitory rate (%, 100 nM)): 48.9 ± 1.4%
